ChEMBL document CHEMBL1140066, “3,4-Dihydro-2H-1,4-benzoxazine derivatives combining thrombin inhibitory and glycoprotein IIb/IIIa receptor antagonistic activity as a novel class of antithrombotic compounds with dual function” (J Med Chem, 2008)
pIC50, pKi: −log10 of the molar value. Calls of active or inactive are those of the source. The calls are words filed in the database; no cut-off is given here.

What was measured:
Platelet [1] = assay: Inhibition of ADP-induced platelet aggregation in human platelet rich plasma at 50 uM; assay type: functional
Coagulation factor X = Coagulation factor X (Homo sapiens, UniProt P00742); assay: Inhibition of factor 10a
[2] = molecular target: Integrin alpha-IIb/beta-3 (Homo sapiens, UniProt P05106+P08514); assay: Inhibition of fibrinogen binding to human platelet GPIIb/IIIa receptor
Prothrombin = Prothrombin (Homo sapiens, UniProt P00734)
[3] = Selectivity for thrombin over factor 10a
[4] = Selectivity for thrombin over trypsin
Platelet [5] = assay: Inhibition of ADP-induced platelet aggregation in human platelet rich plasma; assay type: functional, cell-free

Chain of Integrin alpha-IIb/beta-3 (P05106 27-788 limits assumed): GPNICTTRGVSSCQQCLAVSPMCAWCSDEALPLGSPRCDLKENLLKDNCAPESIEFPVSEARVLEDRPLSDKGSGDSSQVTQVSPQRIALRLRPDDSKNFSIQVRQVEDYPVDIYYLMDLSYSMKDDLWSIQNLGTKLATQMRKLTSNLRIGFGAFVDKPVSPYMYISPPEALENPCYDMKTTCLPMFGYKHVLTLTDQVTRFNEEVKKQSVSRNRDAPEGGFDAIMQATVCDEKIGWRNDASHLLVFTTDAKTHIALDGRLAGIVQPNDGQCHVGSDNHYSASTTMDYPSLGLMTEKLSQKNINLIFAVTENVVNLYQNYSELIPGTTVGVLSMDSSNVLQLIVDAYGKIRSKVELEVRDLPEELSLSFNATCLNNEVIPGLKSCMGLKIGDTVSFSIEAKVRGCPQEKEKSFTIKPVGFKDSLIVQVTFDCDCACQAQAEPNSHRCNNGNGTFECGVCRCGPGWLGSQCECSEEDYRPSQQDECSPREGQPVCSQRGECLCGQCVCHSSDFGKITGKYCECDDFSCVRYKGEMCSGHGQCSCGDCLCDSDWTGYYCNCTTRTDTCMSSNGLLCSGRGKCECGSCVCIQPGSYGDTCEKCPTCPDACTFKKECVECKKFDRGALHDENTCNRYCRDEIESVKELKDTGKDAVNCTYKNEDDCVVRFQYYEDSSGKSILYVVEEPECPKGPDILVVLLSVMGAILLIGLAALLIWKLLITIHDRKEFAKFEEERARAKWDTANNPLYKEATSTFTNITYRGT
Chain of Integrin alpha-IIb/beta-3 (P08514 32-887 limits assumed): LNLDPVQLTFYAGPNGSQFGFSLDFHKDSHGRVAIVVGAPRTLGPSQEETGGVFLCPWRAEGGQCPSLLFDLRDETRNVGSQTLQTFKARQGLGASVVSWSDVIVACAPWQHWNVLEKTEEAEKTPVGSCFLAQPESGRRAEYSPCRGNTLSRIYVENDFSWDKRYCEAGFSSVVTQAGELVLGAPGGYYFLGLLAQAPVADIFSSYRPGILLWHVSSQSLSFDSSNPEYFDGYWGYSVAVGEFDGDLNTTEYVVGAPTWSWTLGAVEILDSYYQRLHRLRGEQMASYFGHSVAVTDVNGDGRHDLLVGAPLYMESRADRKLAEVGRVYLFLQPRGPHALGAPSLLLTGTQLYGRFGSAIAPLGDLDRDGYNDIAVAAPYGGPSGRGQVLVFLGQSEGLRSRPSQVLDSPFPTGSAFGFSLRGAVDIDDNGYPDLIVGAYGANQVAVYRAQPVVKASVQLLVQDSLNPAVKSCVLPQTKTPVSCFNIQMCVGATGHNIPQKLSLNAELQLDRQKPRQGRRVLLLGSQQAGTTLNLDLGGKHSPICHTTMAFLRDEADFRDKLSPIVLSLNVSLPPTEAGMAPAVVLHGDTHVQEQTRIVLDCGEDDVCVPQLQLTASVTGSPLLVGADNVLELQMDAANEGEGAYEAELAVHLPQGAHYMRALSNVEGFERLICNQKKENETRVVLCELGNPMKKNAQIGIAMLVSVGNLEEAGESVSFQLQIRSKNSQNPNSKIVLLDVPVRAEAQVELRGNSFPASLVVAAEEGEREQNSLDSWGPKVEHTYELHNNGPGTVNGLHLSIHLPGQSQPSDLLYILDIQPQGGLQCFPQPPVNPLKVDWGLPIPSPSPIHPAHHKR
Chain of Integrin alpha-IIb/beta-3 (P08514 891-1039 limits assumed): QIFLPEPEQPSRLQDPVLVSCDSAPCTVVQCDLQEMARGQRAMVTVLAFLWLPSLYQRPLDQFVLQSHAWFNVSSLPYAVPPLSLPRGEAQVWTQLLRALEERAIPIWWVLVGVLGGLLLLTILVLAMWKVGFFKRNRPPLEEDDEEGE
Chain of Coagulation factor X (P00742 41-179 limits assumed): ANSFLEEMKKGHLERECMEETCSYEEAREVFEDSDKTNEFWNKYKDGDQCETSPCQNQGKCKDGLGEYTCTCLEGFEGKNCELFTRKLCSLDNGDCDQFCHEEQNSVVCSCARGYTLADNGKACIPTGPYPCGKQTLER
Chain of Coagulation factor X (P00742 235-488 limits assumed): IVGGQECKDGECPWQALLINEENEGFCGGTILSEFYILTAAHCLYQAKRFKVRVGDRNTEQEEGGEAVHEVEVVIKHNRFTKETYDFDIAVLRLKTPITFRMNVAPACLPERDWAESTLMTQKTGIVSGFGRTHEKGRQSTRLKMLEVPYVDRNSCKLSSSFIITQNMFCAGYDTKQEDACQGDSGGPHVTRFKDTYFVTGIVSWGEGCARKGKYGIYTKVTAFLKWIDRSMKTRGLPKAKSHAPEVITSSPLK

| SMILES | Activity (Platelet [1]) | pKi (Coagulation factor X) | pIC50 [2] | inhibition at 50 µM (Platelet [1]) [%] | pKi (Prothrombin) | Selectivity ratio [3] | Selectivity ratio [4] | pIC50 (Platelet [5]) |
| --- | --- | --- | --- | --- | --- | --- | --- | --- |
| CCOC(=O)CCC(=O)N(Cc1ccccc1)c1ccc2c(c1)N(C)CC(C)(COc1ccc(C(=N)N)cc1)O2 (stereo unspecified) | inactive | 4.56 | < 4.00 |  |  |  |  |  |
| CCOC(=O)CN(Cc1ccccc1)c1ccc2c(c1)N(C)CC(C)(COc1ccc(C(=N)N)cc1)O2 (stereo unspecified) |  | 4.92 | 6.14 | 13 |  |  |  |  |
| CCOC(=O)C(=O)N(Cc1ccccc1)c1ccc2c(c1)OC(C)(COc1ccc(C(=N)N)cc1)CN2C (stereo unspecified) |  | 3.95 | 5.70 | 21 |  |  |  |  |
| CCOC(=O)CCC(=O)Nc1ccc2c(c1)OC(C)(COc1ccc(C(=N)N)cc1)CN2C (stereo unspecified) |  | 4.13 | 4.85 | 15 | 4.77 | 4.4 | 0.4 |  |
| CN1C(=O)C(OCc2ccc(C(=N)N)cc2)Oc2cc(C(=O)Nc3ccccc3)ccc21 (stereo unspecified) |  | 4.50 | 4.92 | 19 | 4.62 | 1.3 | 0.7 |  |
| CCOC(=O)CN(Cc1ccccc1)c1ccc2c(c1)OC(C)(COc1ccc(C(=N)N)cc1)CN2C (stereo unspecified) |  | 5.57 | 5.84 | 19 | 6.42 | 7 | 4.5 |  |
| CCOC(=O)CN(C(=O)c1ccccc1)c1ccc2c(c1)OC(C)(COc1ccc(C(=N)N)cc1)CN2C (stereo unspecified) |  | 5.02 | 5.75 | 21 | 6.81 | 47 | 12 |  |
| COC(=O)C(Cc1ccccc1)C(=O)Nc1ccc2c(c1)OC(C)(COc1ccc(C(=N)N)cc1)CN2C (stereo unspecified) |  | 4.45 | 5.04 | 21 | 5.54 | 12 | 1.7 |  |
| CN1C(=O)C(OCc2ccc(C(=N)N)cc2)Oc2cc(C(=O)N(CC(=O)O)c3ccccc3)ccc21 (stereo unspecified) |  | 4.30 | < 4.00 | 24 | 5.75 | 28 | 9.4 |  |
| CN1CC(C)(COc2ccc(C(=N)N)cc2)Oc2cc(NC(=O)CCC(=O)O)ccc21 (stereo unspecified) |  | 4.47 | 5.77 |  | 5.29 | 6.6 | 0.3 | 4.44 |
| CN1CC(C)(COc2ccc(C(=N)N)cc2)Oc2cc(NC(=O)C(Cc3ccccc3)C(=O)O)ccc21 (stereo unspecified) |  |  |  |  | 5.26 |  |  | 4.60 |
| CCOC(=O)CN(C(=O)c1ccc2c(c1)OC(OCc1ccc(C(=N)N)cc1)C(=O)N2C)c1ccccc1 (stereo unspecified) |  | 4.37 | 4.55 | 10 | 5.40 | 11 | 4.6 |  |
| CCOC(=O)C(C(=O)Nc1ccc2c(c1)OC(OCc1ccc(C(=N)N)cc1)C(=O)N2C)c1ccccc1 (stereo unspecified) |  | 4.30 | 5.61 | 23 | 5.00 | 5.1 | 1.5 |  |
| CN1CC(C)(COc2ccc(C(=N)N)cc2)Oc2cc(N(Cc3ccccc3)C(=O)CCC(=O)O)ccc21 (stereo unspecified) |  | 4.53 | < 4.00 | 14 |  |  |  |  |
| CCOC(=O)CCC(=O)N(Cc1ccccc1)c1ccc2c(c1)OC(C)(COc1ccc(C(=N)N)cc1)CN2C (stereo unspecified) | inactive | 4.74 | 4.53 |  | 7.22 | 300 | 19 |  |
| CN1C(=O)C(OCc2ccc(C(=N)N)cc2)Oc2cc(C(=O)N[C@@H](CC(=O)O)c3ccccc3)ccc21 (stereo partly specified) |  | < 3.70 | 5.79 |  | 4.83 |  |  |  |
| CN1CC(C)(COc2ccc(C(=N)N)cc2)Oc2ccc(N(Cc3ccccc3)C(=O)C(=O)O)cc21 (stereo unspecified) |  | 4.50 | < 4.00 |  |  |  |  |  |
| CN1C(=O)C(OCc2ccc(C(=N)N)cc2)Oc2cc(C(=O)NCCC(=O)O)ccc21 (stereo unspecified) |  | 3.95 | 4.82 | 23 | 3.93 | 1 | 0.2 |  |
| CCOC(=O)C[C@H](NC(=O)c1ccc2c(c1)OC(OCc1ccc(C(=N)N)cc1)C(=O)N2C)c1ccccc1 (stereo partly specified) |  | 4.26 | 4.61 |  |  |  |  |  |
| CCOC(=O)C(Cc1ccccc1)C(=O)Nc1ccc2c(c1)N(C)CC(C)(COc1ccc(C(=N)N)cc1)O2 (stereo unspecified) |  | 4.53 | 4.44 | 8 | 5.31 | 6 | 0.6 |  |
| CN1CC(C)(COc2ccc(C(=N)N)cc2)Oc2cc(N(Cc3ccccc3)C(=O)C(=O)O)ccc21 (stereo unspecified) |  | 4.78 | < 4.00 | 26 |  |  |  |  |
| CN1CC(C)(COc2ccc(C(=N)N)cc2)Oc2cc(NC(=O)c3ccccc3)ccc21 (stereo unspecified) |  | 4.92 | 5.55 | 21 | 5.30 | 2.4 | 0.3 |  |
| CCOC(=O)C(=O)N(Cc1ccccc1)c1ccc2c(c1)N(C)CC(C)(COc1ccc(C(=N)N)cc1)O2 (stereo unspecified) |  | 4.80 | 5.92 | 24 |  |  |  |  |
| CCOC(=O)CCC(=O)N(Cc1ccccn1)c1ccc2c(c1)OC(C)(COc1ccc(C(=N)N)cc1)CN2C (stereo unspecified) |  | 4.93 | 4.95 | 15 | 7.60 | 472 | 56 |  |
